Measured values as given in patent US20210213006A1, “METHODS OF TREATING NEURODEGENERATIVE DISEASES” (Seal Rock Therapeutics, Inc., priority 2018, published 2021).

How the values were obtained:
[1] = target: T1, recombinant human full-length DYRK1A protein (Homo sapiens, UniProt Q13627); assay: DYRK1A Kinase Assay (microfluidics detection); assay type: biochemical; conditions: enzyme 0.01 nM, ATP 20 μM, DYRKtide peptide 1 μM, 3 h
T1 construct: recombinant human full-length DYRK1A protein; GST; host or cells: insect cells
Description: The DYRK1A kinase assay was performed using recombinant human full-length DYRK1A protein (GST-tagged, expressed in insect cells), in a 12-concentration IC50 format with singlicate wells (12 pt IC50), using microfluidics detection technology. Kinase reactions were assembled in 384 well plates (Greiner) in a total volume of 20 uL as follows: kinase protein was pre-diluted in assay buffer comprising: 100 mM HEPES, pH 7.5, 0.1% BSA, 0.01% Triton X-100, 1mM DTT, 5mM MgCl2 and dispensed into 384 well plate (10 μL per well). All compounds and reference standards were serially pre-diluted in DMSO and added to the protein samples by acoustic dispensing (Labcyte Echo). DMSO concentration was equalized to 1% in all samples. Control samples (0%-inhibition in the absence of inhibitor, DMSO only) and 100%-inhibition (in the absence of enzyme) are assembled in replicates of four and used to calculate the %-inhibition in the presence of compounds. Reactions were initiated by addition of […] of FAM-labeled DYRKtide peptide substrate and ATP prepared in the same assay buffer. Final concentrations of enzyme, ATP and substrate peptide were 0.01 nM, 20 μM and 1 μM, respectively. The kinase reactions are allowed to proceed for 3 h at room temperature. Following incubation, the reactions were quenched by addition of 50 μL of termination buffer (100 mM HEPES, pH7.5, 0.01% Triton X-100, 50 mM EDTA). Terminated plates are analyzed on a microfluidic electrophoresis instrument (Caliper LabChip® 3000, Caliper Life Sciences/Perkin Elmer), enabling electrophoretic separation and detection of product and substrate. A change in the relative intensity of the peptide substrate and phosphorylated product was the parameter measured. Activity in each test sample was determined as the product to sum ratio (PSR): P/(S+P), where P is the peak height of the product, and S is the peak height of the substrate. Percent inhibition (Pinh) was determined using the following equation: Pinh=(PSR0% inh—PSR compound)/(PSR0% inh—PSR100% inh)*100, in which: PSR compound is the product/sum ratio in the presence of compound, PSR0% inh is the product/sum ratio in the absence of compound and the PSR100% inh is the product/sum ratio in the absence of the enzyme. The compound IC50 (50%-inhibition) was determined by the %-inh data (Pinh versus compound concentration) fitted by a 4-parameter sigmoid dose-response model using XLfit software (IDBS).

[2] = target: T2, ASK1 (Homo sapiens, UniProt Q99683); assay: ASK1 Kinase Assay (Promega ASK1 Kinase Enzyme System, ADP-Glo); assay type: biochemical; conditions: enzyme 50 nM, Myelin basic protein 1 μg/ml, ATP 10 μM
T2 construct: purchased Promega V3881
T2 sequence (Q99683 649-946 limits assumed): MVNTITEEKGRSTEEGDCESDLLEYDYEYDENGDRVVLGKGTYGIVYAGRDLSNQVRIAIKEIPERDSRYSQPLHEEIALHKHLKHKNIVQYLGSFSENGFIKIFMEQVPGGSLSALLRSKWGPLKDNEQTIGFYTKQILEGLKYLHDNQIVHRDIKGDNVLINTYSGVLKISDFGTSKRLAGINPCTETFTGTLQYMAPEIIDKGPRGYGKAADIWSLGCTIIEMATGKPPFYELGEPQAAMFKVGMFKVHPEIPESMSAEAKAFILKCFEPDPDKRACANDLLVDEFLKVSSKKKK
Description: ASK1 Kinase Assay. The ASK1 enzymatic assay was run following Promega ASK1 Kinase Enzyme System (Cat #V3881). The kit provides the protocol, enzymes and all reagents necessary to run an assay.
Firstly, the compounds, enzyme, substrate and ATP were diluted in provided assay buffer. The final concentration of the enzyme was 50 nM, substrate (Myelin basic protein) 1μg/ml and ATP 10 μM. The compound and the enzyme were pre-incubated in a 384 well white solid bottom plate (Greiner, Cat #784075) for 10 minutes. After incubation, the substrate and ATP were added and incubated for further 60 minutes. After 60 minutes, ADP-gloTM was added and plate was incubated for another 40 minutes. After 40 minutes, Kinase Detection Reagent was added and the plate was incubated for 45 minutes. After 45 minutes, plate was read on Perkin Elmer EnVision using luminescence read (0.5 seconds/well).

Row | Molecule | IC50 [1] | IC50 [2]
1 | N-(3-(5-(6-(4-Cyclopropyl-4H-1,2,4-triazol-3-yl)pyridin-2-yl)-6-oxo-5,6-dihydro-4H-thieno[2,3-c]pyrrol-2-yl)phenypacetamide [Compound 92] | < 0.2 µM | 0.2 to 1 µM
2 | Cc1cc2c(s1)C(=O)N(c1cccc(-c3nncn3C3CC3)n1)C2 [Compound 96, 5-(6-(4-cyclopropyl-4H-1,2,4-triazol-3-yl)pyridin-2-yl)-2-methyl-4,5-dihydro-6H-thieno[2,3-c]pyrrol-6-one] | 0.2 to 1 µM | < 0.2 µM
3 | O=C1c2scc(Br)c2CN1c1cccc(-c2nncn2C2CC2)n1 [Compound 100, 3-bromo-5-(6-(4-cyclopropyl-4H-1,2,4-triazol-3-yl)pyridin-2-yl)-4,5-dihydro-6H-thieno[2,3-c]pyrrol-6-one] | 1 to 10 µM | 0.2 to 1 µM
4 | O=C1c2sccc2CN1c1cccc(-c2nncn2C2CC2)n1 [Compound 90, 5-(6-(4-Cyclopropyl-4H-1,2,4-triazol-3-yl)pyridin-2-yl)-4,5-dihydro-6H-thieno[2,3-c]pyrrol-6-one] | 0.2 to 1 µM | < 0.2 µM
5 | COc1cc2c(s1)C(=O)N(c1cccc(-c3nncn3C3CC3)n1)C2 [Compound 102, 5-(6-(4-cyclopropyl-4H-1,2,4-triazol-3-yl)pyridin-2-yl)-2-methoxy-4,5-dihydro-6H-thieno[2,3-c]pyrrol-6-one] | 0.2 to 1 µM | < 0.2 µM
6 | CC(C)n1cnnc1-c1cccc(N2Cc3ccsc3C2=O)n1 [Compound 103, 5-(6-(4-isopropyl-4H-1,2,4-triazol-3-yl)pyridin-2-yl)-4,5-dihydro-6H-thieno[2,3-c]pyrrol-6-one] | < 0.2 µM | < 0.2 µM
7 | CC(=O)c1ccccc1-c1cc2c(s1)C(=O)N(c1cccc(-c3nncn3C3CC3)n1)C2 [Compound 91, 2-(2-Acetylphenyl)-5-(6-(4-cyclopropyl-4H-1,2,4-triazol-3-yl)pyridin-2-yl)-4,5-dihydro-6H-thieno[2,3-c]pyrrol-6-one] | 0.2 to 1 µM | 0.2 to 1 µM
8 | CN(C)c1cc2c(s1)C(=O)N(c1cccc(-c3nncn3C3CC3)n1)C2 [Compound 104, 5-(6-(4-cyclopropyl-4H-1,2,4-triazol-3-yl)pyridin-2-yl)-2-(dimethylamino)-4,5-dihydro-6H-thieno[2,3-c] pyrrol-6-one] | 0.2 to 1 µM | 0.2 to 1 µM
9 | O=C1c2sc3ccccc3c2CN1c1cccc(-c2nncn2C2CC2)n1 [Compound 95, 2-(6-(4-cyclopropyl-4H-1,2,4-triazol-3-yl)pyridin-2-yl)-1,2-dihydro-3H-benzo[4,5]thieno[2,3-c]pyrrol-3-one] | 1 to 10 µM | 0.2 to 1 µM
10 | O=C1c2scc(C3CCOCC3)c2CN1c1cccc(-c2nncn2C2CC2)n1 [Compound 98, 5-(6-(4-cyclopropyl-4H-1,2,4-triazol-3-yl)pyridin-2-yl)-3-(tetrahydro-2H-pyran-4-yl)-4,5-dihydro-6H-thieno[2,3-c]pyrrol-6-one] | 1 to 10 µM | 1 to 10 µM
11 | CC(C)CNc1csc2c1CN(c1cccc(-c3nncn3C3CC3)n1)C2=O [Compound 101, 5-(6-(4-cyclopropyl-4H-1,2,4-triazol-3-yl)pyridin-2-yl)-3-(isobutylamino)-4,5-dihydro-6H-thieno[2,3-c] pyrrol-6-one] | 1 to 10 µM | –
12 | O=C1c2sc(C3CCOCC3)cc2CN1c1cccc(-c2nncn2C2CC2)n1 [Compound 93, 5-(6-(4-cyclopropyl-4H-1,2,4-triazol-3-yl)pyridin-2-yl)-2-(tetrahydro-2H-pyran-4-yl)-4,5-dihydro-6H-thieno[2,3-c]pyrrol-6-one] | < 0.2 µM | 0.2 to 1 µM
13 | CCc1cc2c(s1)C(=O)N(c1cccc(-c3nncn3C3CC3)n1)C2 [Compound 97, 5-(6-(4-cyclopropyl-4H-1,2,4-triazol-3-yl)pyridin-2-yl)-2-ethyl-4,5-dihydro-6H-thieno[2,3-c]pyrrol-6-one] | < 0.2 µM | 0.2 to 1 µM
14 | O=C1c2scc(-c3ccccc3)c2CN1c1cccc(-c2nncn2C2CC2)n1 [Compound 94, 5-(6-(4-cyclopropyl-4H-1,2,4-triazol-3-yl)pyridin-2-yl)-3-phenyl-4,5-dihydro-6H-thieno[2,3-c]pyrrol-6-one] | 1 to 10 µM | 0.2 to 1 µM
15 | Cc1csc2c1CN(c1cccc(-c3nncn3C3CC3)n1)C2=O [Compound 99, 5-(6-(4-cyclopropyl-4H-1,2,4-triazol-3-yl)pyridin-2-yl)-3-methyl-4,5-dihydro-6H-thieno[2,3-c]pyrrol-6-one] | 1 to 10 µM | 0.2 to 1 µM
